In patent US10202349B2, “Asymmetric bis-acridines with antitumour activity and their uses” (POLITECHNIKA GDAŃSKA, priority 2015, dated 2019):

Assays:
AsPC-1 = experiment: Cytotoxic activity in vitro, SRB; type: cell-based, human
Summary of the method: (§1)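 Growth inhibition of human cancer cell lines was assessed by SRB staining (NCI-recommended). Potency is reported as EC50 versus control.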

DU-145 = experiment: Cytotoxic activity in vitro, SRB; type: cell-based, human
Summary of the method: as §1

H-460 = experiment: Cytotoxic activity in vitro, SRB; type: cell-based, human
Summary of the method: as §1

HCT-116 = experiment: Cytotoxic activity in vitro, SRB; type: cell-based, human
Summary of the method: as §1

HT-29 = experiment: Cytotoxic activity in vitro, SRB; type: cell-based, human
Summary of the method: as §1

MCF-7 = experiment: Cytotoxic activity in vitro, SRB; type: cell-based, human
Summary of the method: as §1

MDA-MB-231 = experiment: Cytotoxic activity in vitro, SRB; type: cell-based, human
Summary of the method: as §1

MiaPaCa-2 = experiment: Cytotoxic activity in vitro, SRB; type: cell-based, human
Summary of the method: as §1

PANC-1 = experiment: Cytotoxic activity in vitro, SRB; type: cell-based, human
Summary of the method: as §1

PC-3 = experiment: Cytotoxic activity in vitro, SRB; type: cell-based, human
Summary of the method: as §1

UM-UC-3 = experiment: Cytotoxic activity in vitro, SRB; type: cell-based, human
Summary of the method: as §1

DU 145 = experiment: Anti-neoplasmic activity against xenograft in hairless mice; type: in vivo; settings: single 2 mg/kg
Procedure: (§2) For this, we selected 26 bis-acridines, mainly on the basis of the cytotoxic activity. We performed 34 series of experiments evaluating the anti-neoplasmic activity on xenografts in hairless mice against eleven neoplasms of human origin from the determination of the cytotoxic activity of bis-acridines (table 4). The tumours were injected subcutaneously to hairless mice of 5-weeks, female Crl:Nu-Foxnlnu, at a rate of 5×10^6 cells per mouse. After attaining a tumour of about 100 mm^3 or 200 mm^3 in depending on the neoplasm and its take this was 8 or even 30 days, and began therapy. On the day therapy was initiated, we randomised the animals and divided them into groups. Test groups were from 6 to 8 animals, and controls had from 8 to 14 animals. Each compound was tested at three differentiated doses.
(§3) The preparations were administered intravenously (i.v.) twice weekly for 4 weeks (thrice weekly for rapidly growing neoplasms). In several series, we used intraperitoneally (i.p.) administration in the same scheme. […] The therapeutic efficacy of the tested formulations was evaluated by measuring tumour size (length and width measurements of the tumour on the basis of the calculated tumour volume). Tumours were measured twice weekly for a period of about 30 days for fast-growing neoplasms, as well as about 60 days for the slow-growing neoplasms. The tumour volume in the treated groups compared with the control group. On this basis, inhibition of tumour growth was calculated using the following formula: Tumour growth inhibition TGI [%]=100−(ΔVT/ΔVC×100) Where ΔVT—is mean the tumour volume in animals in the group treated at the given day of treatment, minus the mean tumour volume in animals at the date of commencement of therapy. ΔVC is mean tumour volume in animals in the control group on a given day of treatment minus the average tumour volume of animals on the date of commencement of therapy. The results of the tests of anti-neoplasmic activity conducted in xenografts of human-origin neoplasms in mice are shown in Table 5.
(§4) The result above was accepted only in the case that the dose administered in all animals or more than half of the animals that survived to the end of the experiment. In addition, the evaluation was the day that the administration of the preparation was already completed: for the fast-growing neoplasms (eg. HCT116) this was in the days from 15 to 26, while for slow-growing neoplasms (eg. Panc 1) on a day from 34 to 60. […] In addition, the maximum inhibition of neoplasms could be identified in the day, in which there were no factors that could change the value TGI value.
(§5) Such factors may include: a significant decrease in body weight, the appearance of observable toxaemia, excessive rate of tumour growth: tumours in excess of 2000 mm^3 and all animals alive on that day.

HCT 116 = experiment: as above; type: in vivo
Procedure: as §2, §3, §4, §5

PC 3 = experiment: as above; type: in vivo; settings: series 15, i.p., single 2 mg/kg, total 12 mg/kg, day 39
Procedure: as §2, §3, §4, §5

BxPC-3 = experiment: Cytotoxic activity in vitro, SRB; type: cell-based, human
Summary of the method: as §1

Capan-2 = experiment: Cytotoxic activity in vitro, SRB; type: cell-based, human
Summary of the method: as §1

MDA MB 231 = experiment: Anti-neoplasmic activity against xenograft in hairless mice; type: in vivo
Procedure: as §2, §3, §4, §5

PANC 1 = experiment: as above; type: in vivo
Procedure: as §2, §3, §4, §5

AsPC 1 = experiment: as above; type: in vivo
Procedure: as §2, §3, §4, §5

BXPC 3 = experiment: as above; type: in vivo
Procedure: as §2, §3, §4, §5

Mia Pa Ca 2 = experiment: as above; type: in vivo; settings: series 28, i.v., single 6 mg/kg, total 12 mg/kg, day 15, *at least half of animals did not survive
Procedure: as §2, §3, §4, §5

SMILES	EC50 (AsPC-1) [nM]	EC50 (DU-145) [nM]	EC50 (H-460) [nM]	EC50 (HCT-116) [nM]	EC50 (HT-29) [nM]	EC50 (MCF-7) [nM]	EC50 (MDA-MB-231) [nM]	EC50 (MiaPaCa-2) [nM]	EC50 (PANC-1) [nM]	EC50 (PC-3) [nM]	EC50 (UM-UC-3) [nM]	EC50 (BxPC-3) [nM]	EC50 (Capan-2) [nM]	other results
CN(CCCNc1c2ccccc2nc2cccc([N+](=O)[O-])c12)CCCNc1ccc([N+](=O)[O-])c2[nH]c3ccc(O)cc3c(=O)c12 [C-1906, 9-{N-[(7-hydroxy-4-nitro-9(10H)acridono-1-yl)aminopropyl]-N-methylaminopropylamino}-1′-nitroacridone]	135	43	14	15	22	74	20	24	32	52	14			TGI [%] [100 − (ΔVT/ΔVC × 100] (DU 145; series 1, i.p., total 6 mg/kg, day 35, *at least half of animals did not survive): 60* %; TGI [%] [100 − (ΔVT/ΔVC × 100] (HCT 116; series 9, i.v., single 1 mg/kg, total 5 mg/kg, day 16, *at least half of animals did not survive): 32* %; TGI [%] [100 − (ΔVT/ΔVC × 100] (PC 3): 52%
Cc1ccc([N+](=O)[O-])c2c(NCCCN3CCN(CCCNc4ccc5ncn6c7ccc(O)cc7c(=O)c4c56)CC3)c3ccccc3nc12 [C-2025, 1-[3-(8-hydroxy-imidazo[4,5,1-de]-acridin-6-on-5-yl)aminopropyl]-4-[3′-(4′-methyl-1′-nitroacridin-1-yl)-aminopropyl]piperazine]	343	67	74	51	237	244	17	38	42	130	35	354	68	TGI [%] [100 − (ΔVT/ΔVC × 100] (HCT 116; series 7, i.v., single 20 mg/kg, total 120 mg/kg, day 15): 4%; TGI [%] [100 − (ΔVT/ΔVC × 100] (MDA MB 231; series 19, i.v., single 5 mg/kg, total 40 mg/kg, day 39): 12%; TGI [%] [100 − (ΔVT/ΔVC × 100] (PANC 1; series 20, i.v., single 20 mg/kg, total 160 mg/kg, day 26, *at least half of animals did not survive): 61* %
O=c1c2ccccc2n2cnc3ccc(NCCCN4CCN(CCCNc5c6ccccc6nc6cccc([N+](=O)[O-])c56)CC4)c1c32 [C-2041, 1-[3-(imidazo[4,5,1-de]-acridin-6-on-5-yl)aminopropyl]-4-[3′-(1′-nitroacridin-1-yl)-aminopropyl]piperazine]	69	22		25		82	21	39	24			54	32	TGI [%] [100 − (ΔVT/ΔVC × 100] (AsPC 1; series 23, i.p., single 2 mg/kg, total 16 mg/kg, day 39): 29%; TGI [%] [100 − (ΔVT/ΔVC × 100] (BXPC 3; series 21, i.v., single 2 mg/kg, total 16 mg/kg, day 44): 81%; TGI [%] [100 − (ΔVT/ΔVC × 100] (BXPC 3; series 33, i.v., single 2 mg/kg, total 16 mg/kg, day 32): 48%; TGI [%] [100 − (ΔVT/ΔVC × 100] (DU 145; series 18, i.v., total 16 mg/kg, day 33): 61%; TGI [%] [100 − (ΔVT/ΔVC × 100] (MDA MB 231; series 34, i.v., single 4 mg/kg, total 32 mg/kg, day 32): 53%; TGI [%] [100 − (ΔVT/ΔVC × 100] (Mia Pa Ca 2): 38* %; TGI [%] [100 − (ΔVT/ΔVC × 100] (PANC 1; series 17, i.v., single 2 mg/kg, total 16 mg/kg, day 60): 76%; TGI [%] [100 − (ΔVT/ΔVC × 100] (PANC 1; series 27, i.v., single 2 mg/kg, total 16 mg/kg, day 33): 83%; TGI [%] [100 − (ΔVT/ΔVC × 100] (PANC 1; series 32, i.v., single 1 mg/kg, total 16 mg/kg, day 33): 82%
COc1ccc2c(c1)c(=O)c1c(NCCCN3CCN(CCCNc4c5ccccc5nc5cccc([N+](=O)[O-])c45)CC3)ccc3ncn2c31 [C-2049, 1-[3-(8-methoxy-imidazo[4,5,1-de]-acridin-6-on-5-yl)aminopropyl]-4-[3′-(1′-nitroacridin-1-yl)-aminopropyl]piperazine]	122	21		28			38	36	40			75	27	TGI [%] [100 − (ΔVT/ΔVC × 100] (AsPC 1; series 23, i.v., single 6 mg/kg, total 48 mg/kg, day 36, *at least half of animals did not survive): 32* %; TGI [%] [100 − (ΔVT/ΔVC × 100] (BXPC 3; series 21, i.v., single 6 mg/kg, total 40 mg/kg, day 34): 63%; TGI [%] [100 − (ΔVT/ΔVC × 100] (PANC 1; series 20, i.v., single 6 mg/kg, total 48 mg/kg, day 32): 63%; TGI [%] [100 − (ΔVT/ΔVC × 100] (PANC 1; series 27, i.v, single 2 mg/kg, total 16 mg/kg, day 47): 80%
Cc1ccc([N+](=O)[O-])c2c(NCCCN(C)CCCNc3ccc4ncn5c6ccccc6c(=O)c3c45)c3ccccc3nc12 [C-2053, 9-{N-[(imidazo[4,5,1-de]-acridin-6-on-5-yl)aminopropyl]-N-methylaminopropylamino}-4′-methyl-1′-nitroacridine]	176	65		65				87	98			224		TGI [%] [100 − (ΔVT/ΔVC × 100] (BXPC 3; series 25, i.v., single 20 mg/kg, total 160 mg/kg, day 36): 84%; TGI [%] [100 − (ΔVT/ΔVC × 100] (BXPC 3; series 33, i.v., single 20 mg/kg, total 160 mg/kg, day 32, *at least half of animals did not survive): 47* %; TGI [%] [100 − (ΔVT/ΔVC × 100] (MDA MB 231; series 34, i.v., single 15 mg/kg, total 120 mg/kg, day 32): 62%; TGI [%] [100 − (ΔVT/ΔVC × 100] (PANC 1; series 24, i.v., single 15 mg/kg, total 120 mg/kg, day 37): 64%; TGI [%] [100 − (ΔVT/ΔVC × 100] (PANC 1; series 26, i.v., single 20 mg/kg, total 160 mg/kg, day 56): 69%
